In patent US4240957A, “Dipeptide derivatives and their production” (Shionogi & Co., Ltd., priority 1974, dated 1980):

How the values were obtained:
Format in all cases: in vivo
[1] = test system: DS male mice; test: Taming activity (inhibition of electroshock-induced fighting); conditions: for Taming activity ED50: administered 60 minutes prior, inhibition of fighting responses, 5 pairs of mice; for times more potent than diazepam in taming activity: relative to diazepam (Compound No. 5)
Description: This test was measured on DS male mice. […] These pairs of mice were selected in the morning and used for drug test in the afternoon. The test compound was administered to both mice of the pairs 60 minutes prior to the experiment. Results were obtained as the mean percentage of inhibition of fighting responses in a group of 5 pairs and shown by ED50 [Tedeschi, et al.: J. Pharmacol Exp. Thev., 125, 28-34 (1959)].

[2] = test system: DS male mice; test: Anti-pentylenetetrazole activity; conditions: for Anti-pentylenetetrazol activity, ED50: given orally 60 minutes prior to pentylenetetrazol 125 mg/kg s.c., complete protection against mortality, observed two hours; for times more potent than diazepam in anti-pentylenetetrazol activity: relative to diazepam (Compound No. 5)
Description: (1) Anti-pentylenetetrazole activity:
The convulsions were disregarded.

[3] = test system: DS male mice; test: Rotarod performance activity; conditions: fall from rod within less than 2 minutes; 10 mice per dose
Description: (3) Rotarod performance activity:
This test was measured on DS male mice. The mouse was put on a scraped rod of wood, 3 cm in diameter, turning at the rate of five rotations per minute. The mice that could remain on the rod for three or more minutes in successive trials were selected and placed in a group of 10 mice for each dose. If the mouse fell down from the rod within less than 2 minutes, the test compound was considered to be effective. Results were shown by ED50 [Dunham, et al.: J. Am. Pharm. Assoc., 46, 208 (1957)].

[4] = relative to chlordiazepoxide (Compound No. 4)

Row | Compound | times more potent than chlordiazepoxide in taming activity [1, 4] | Anti-pentylenetetrazol activity, ED50 [2] | times more potent than chlordiazepoxide in anti-pentylenetetrazol activity [2, 4] | Rotarod performance ED50 [3] | Taming activity ED50 [1] | times more potent than diazepam in taming activity [1] | times more potent than diazepam in anti-pentylenetetrazol activity [2]
1 | CN(C(=O)CNC(=O)CN)c1ccc(Cl)cc1C(=O)c1ccccc1 [Compound No. 1, 2-benzoyl-4-chloro-N-methyl-N^α -glycyl-glycinanilide] | 2 to 3 times | 1.0 mg/kg | 2 to 3 times | – | – | – | –
2 | CN(C(=O)CNC(=O)CN)c1ccc(Cl)cc1C(=O)c1ccccc1F.Cl [Compound No. 3, 2-o-fluorobenzoyl-4-chloro-N-methyl-N^α -glycyl-glycinanilide hydrochloride] | – | 0.33 mg/kg | – | 17.0 mg/kg | 1.6 mg/kg | 2 to 4 times | 2 to 4 times
3 | CN(C(=O)CNC(=O)CN)c1ccc(Cl)cc1C(=O)c1ccccc1Cl.O [Compound No. 2, 2-o-chlorobenzoyl-4-chloro-N-methyl-N^α -glycyl-glycinanilide hydrate] | – | 0.58 mg/kg | – | – | 3.0 mg/kg | 2 to 4 times | 2 to 4 times
